Assay results reported in ChEMBL document CHEMBL6115028, “An Amazing 30-Year Journey around the DABO Family: A Medicinal Chemistry Lesson on a Versatile Class of Non-nucleoside HIV-1 Reverse Transcriptase Inhibitors” (J Med Chem, 2025).
Values after ≈ are worked out from the molar mass of the structure shown.

Assays:
A-375 [1] = test: Inhibition of cell proliferation in human A-375 cells assessed as alive cells at 100 uM measured for 96 hrs relative to control; assay type: functional
A-375 [2] = test: Inhibition of cell proliferation in human A-375 cells assessed as alive cells at 50 uM measured for 96 hrs relative to control; assay type: functional
MOLT-4 = test: Growth inhibition of human MOLT-4 cells at 10 uM relative to control; assay type: functional; details: read-out: GI
A-375 [3] = test: Inhibition of cell proliferation in human A-375 cells assessed as alive cells at 10 uM measured for 96 hrs relative to control; assay type: functional
A-375 [4] = test: Inhibition of cell proliferation in human A-375 cells assessed as alive cells at 25 uM measured for 96 hrs relative to control; assay type: functional
A-375 [5] = test: Inhibition of cell proliferation in human A-375 cells assessed as alive cells at 2.5 uM measured for 96 hrs relative to control; assay type: functional
A-375 [6] = test: Inhibition of cell proliferation in human A-375 cells assessed as alive cells at 5 uM measured for 96 hrs relative to control; assay type: functional
Hepatitis C virus = test: Antiviral activity against Hepatitis C virus infected in human Huh7.5 cells assessed as reduction in viral replication; assay type: functional, organism-based, Hepacivirus hominis
[7] = Inhibition of Hepatitis C virus NS5B RNA dependent RNA polymerase; parameters: species or system Hepacivirus hominis
Huh-7 = test: Cytotoxicity against human Huh-7 cells assessed as reduction in cell growth; assay type: functional
HOP-92 = test: Growth inhibition of human HOP-92 cells at 10 uM relative to control; assay type: functional; details: read-out: GI
Influenza A virus [8] = test: Antiviral activity against Influenza A virus A/H2N2 infected in dog MDCK cells reduction in viral replication incubated for 3 days by MTS assay; assay type: functional, organism-based; details: 72 h
Influenza A virus [9] = test: Antiviral activity against Influenza A virus A/H2N2 infected in dog MDCK cells reduction in virus induced cytopathic effect measured after 3 days by CPE assay; assay type: functional, organism-based; details: 72 h
Influenza A virus [10] = test: Antiviral activity against Influenza A virus A/H1N1 infected in dog MDCK cells reduction in viral replication incubated for 3 days by MTS assay; assay type: functional, organism-based; details: 72 h
[11] = Cytotoxicity against dog MDCK cells assessed as reduction in cell viability measured for 3 days by MTT assay; assay type: toxicity, cell-based, Canis lupus familiaris; details: time 3 day
Influenza B virus [12] = test: Antiviral activity against Influenza B virus infected in dog MDCK cells assessed as reduction in viral replication incubated for 3 days by MTS assay; assay type: functional, organism-based; details: 72 h
Influenza B virus [13] = test: Antiviral activity against Influenza B virus infected in dog MDCK cells assessed as reduction in cytopathic effect measured after 3 days by CPE assay; assay type: functional, organism-based; details: 72 h
Influenza A virus [14] = test: Antiviral activity against Influenza A virus A/H1N1 infected in MDCK cells reduction in virus induced cytopathic effect measured after 3 days by CPE assay; assay type: functional, organism-based; details: 72 h
[15] = Inhibition of Zika virus NS5 RNA-directed RNA polymerase NS5
[16] = Cytotoxicity against African green monkey Vero cells assessed as reduction in cell viability measured after 96 hrs by MTT assay; assay type: toxicity, cell-based; details: chlorocebus sabaeus
[17] = Cytotoxicity against African green monkey Vero cells assessed as reduction in cell growth measured after 96 hrs by MTT assay; assay type: toxicity, cell-based; details: chlorocebus sabaeus
Zika virus = test: Antiviral activity against Zika virus infected in Vero cells assessed as reduction in viral DNA replication; assay type: functional, organism-based
Escherichia coli = test: Antibacterial activity against Escherichia coli ATCC 25922 assessed as reduction in bacterial growth incubated for 24 to 48 hrs by serial dilution method; assay type: functional; details: time 24-48 hrs
Bacillus subtilis = test: Antibacterial activity against Bacillus subtilis NRRL B-1481 assessed as reduction in bacterial growth incubated for 24 to 48 hrs by serial dilution method; assay type: functional; details: time 24-48 hrs
Pseudomonas aeruginosa = test: Antibacterial activity against Pseudomonas aeruginosa ATCC 27853 assessed as reduction in bacterial growth incubated for 24 to 48 hrs by serial dilution method; assay type: functional; details: time 24-48 hrs
Micrococcus luteus = test: Antibacterial activity against Micrococcus luteus ATCC 2188 assessed as reduction in bacterial growth incubated for 24 to 48 hrs by serial dilution method; assay type: functional; details: time 24-48 hrs
Staphylococcus aureus = test: Antibacterial activity against Staphylococcus aureus ATCC 6538 assessed as reduction in bacterial growth incubated for 24 to 48 hrs by serial dilution method; assay type: functional; details: time 24-48 hrs

CCC(C)Sc1nc(C(C)c2c(F)cccc2F)nc(=O)[nH]1 (stereo not drawn)
inhibition at 100 µM (A-375 [1]): 14%
inhibition at 50 µM (A-375 [2]): 62%

CCc1ccc(-c2nc(SCC(=O)c3ccc(Br)cc3)[nH]c(=O)c2C#N)s1
inhibition of growth at 10 µM (MOLT-4): 42.4%

CCC(C)Sc1nc(C(CC)c2c(F)cccc2F)c(C)c(=O)[nH]1 (stereo not drawn)
inhibition at 10 µM (A-375 [3]): 12%
inhibition at 25 µM (A-375 [4]): 5%
inhibition at 2.5 µM (A-375 [5]): 70%
inhibition at 5 µM (A-375 [6]): 30%

CCc1c(-c2ccc(C(C)C)cc2)nc(Sc2ccccc2Br)[nH]c1=O
EC50 (Hepatitis C virus): 32 µM
IC50 [7]: 3.8 µM
CC50 (Huh-7): > 250 µM

N#Cc1c(-c2c(Cl)cccc2Cl)nc(SCC(=O)c2ccc(Br)cc2)[nH]c1=O
inhibition of growth at 10 µM (HOP-92): 41%

COc1ccc(NC(=O)CSc2nc(Cc3cccc4ccccc34)c(C)c(=O)[nH]2)cc1
EC50 (Influenza A virus [8]): 9.7 µM
EC50 (Influenza A virus [9]): 26 µM
EC50 (Influenza A virus [10]): 9 µM
CC50 at 72 h [11]: > 224 µM
EC50 (Influenza B virus [12]): > 22 µM
EC50 (Influenza B virus [13]): > 45 µM
EC50 (Influenza A virus [14]): 9 µM

CCc1c(C2CCCCC2)nc(SCC(=O)Nc2cc(F)cc(F)c2)[nH]c1=O
IC50 [15]: 11.4 µM
IC50 [7]: 0.102 µM
CC50 at 96 h [16]: > 10 µM
CC50 at 96 h [17]: > 200 µM
EC50 (Zika virus): 7.65 µM

COc1cc(-c2nc(SC)[nH]c(=O)c2C#N)ccc1OCc1ccccc1
MIC (Escherichia coli): 12.5 µg/mL (≈ 32.9 µM)
MIC (Bacillus subtilis): 6.25 µg/mL (≈ 16.5 µM)
MIC (Pseudomonas aeruginosa): 12.5 µg/mL (≈ 32.9 µM)
MIC (Micrococcus luteus): 12.5 µM (≈ 4.74 µg/mL)
MIC (Staphylococcus aureus): 12.5 µg/mL (≈ 32.9 µM)
